Source: patent publication US20180177724A1, “SITE-TARGETED NANO-LIPOSOMAL NITROGLYCERIN THERAPEUTICS” (The Regents of the University of California, priority 2015, published 2018)
Read-outs that look alike come from different tables or passages of the source.

Legend:
[1] = tested on: U937 monocytic cell adhesion to L-NIO-treated ECs; assay: Monocyte adhesion assay, L-NIO-treated (NO-deficient) ECs; format: cell-based, human; conditions: for U937 cell-EC adhesion after 4 hr treatment: L-NIO
Experimental: Human microvascular endothelial cells (HMEC-1) were purchased from the Center for Disease Control (CDC) and cultured on gelatin-coated tissue culture dishes in growth medium composed of MCDB-131 (VWR International, USA) supplemented with 10% FBS (Fisherbrand, USA), 2 mM L-Glutamine (Invitrogen, USA), 1× antimycotic/antibiotic mixture (Life Technologies, USA), 10 ng/mL huEGF (Millipore, USA) and 1 μg/mL Hydrocortizone (Sigma Aldrich, USA). Human U937 monocyte cells were purchased from ATCC (Manassas, Va., USA) and cultured in suspension in growth medium composed of RPMI 1640 (Fisherbrand, USA) supplemented with 2 mM L-Glutamine (Invitrogen), 10 mM HEPES (Fisherbrand, USA), 10% FBS (Fisherbrand), antimycotic/antibiotic mixture (Life Technologies, USA), 1 mM sodium pyruvate (Life Technologies, USA) and 4.5 mg/mL glucose (Sigma Aldrich, USA).
After 30 min of monocyte-EC interaction at 37° C., monocyte suspension was removed and the EC monolayers gently rinsed twice with PBS (to remove unbound monocytes) prior to fixation in 1% paraformaldehyde (PFA; Electron Microscopy Sciences, USA). Fluorescent images (10 per condition) of labeled U937 cells were then acquired using a Nikon Eclipse Ti microscope (Nikon, Japan) fitted with a Nikon Digital Sight DS-Qi1Mc camera and the number of adherent monocytes was counted using ImageJ software (NIH).

[2] = tested on: endothelial NO production; assay: EC-secreted (extracellular) NO by Nitric Oxide Analyzer (NOA); format: cell-based, human; conditions: NTG 5 μM, L-NIO-treated ECs
Experimental: (§1) Two independent methods were used to measure the amount of NO produced by ECs. In the first method, ECs were treated overnight with L-NIO (5 mM)±NTG (5 μM) or NTG-NL (10 μg/mL), followed by incubation with a NO-sensitive fluorescent dye DAF-FM diacetate (2 μM; Life Technologies, USA) for 20 minutes at 37° C. Following dye loading, ECs were again treated with L-NIO and NTG during a recovery phase for an additional 1 h in regular growth medium. EC culture media was then rinsed once with Krebs-Henseleit Buffer (KHB) containing 125 mM NaCl, 4.74 mM KCl, 2.5 mM CaCl2, 1.2 mM KH2PO4 1.2 mM MgSO4, 5 mM NaHCO3 and 10 mM Glucose (Sigma Aldrich, USA), replaced with fresh KHB and immediately subjected to live cell fluorescence imaging using Nikon Eclipse Ti microscope. At least 30 cells per condition were analyzed for total cell fluorescence using ImageJ software (NIH). For the second method, a Nitric Oxide Analyzer (NOA; Sievers, USA) was used to measure EC-secreted NO in culture medium. For this measurement, confluent ECs were treated overnight with either L-NIO (5 mM)±NTG (5 μM) or NTG alone, followed by sequential 1 h incubations with KHB without and with L-NIO±NTG at 37° C. KHB conditioned medium (4 replicates per condition) was then collected and analyzed using NOA.

[3] = tested on: endothelial NO production; assay: Intracellular NO by DAF-FM diacetate fluorescence; format: cell-based, human; conditions: NTG 5 μM
Experimental: as §1

[4] = tested on: endothelial ICAM-1 clustering; assay: ICAM-1 clustering in U937 cell-EC co-cultures; format: cell-based, human; conditions: NTG 5 μM
Experimental: ECs were grown to confluence on glass coverslips under normal growth conditions and treated with L-NIO (5 mM)±[NTG (5 μM) or NTG-NL (5 μg/mL)] for 24 h. Next, a monocyte adhesion assay was performed (as described earlier) and the monocyte-EC co-cultures fixed, permeabilized with 0.1% Triton X-100, blocked with 2% bovine serum albumin (BSA; Millipore, USA), and sequentially incubated with primary anti-ICAM-1 mouse antibody (Santa Cruz Biotechnology, USA) and secondary FITC-conjugated DyLight 488 anti-mouse IgG (Vector Labs, USA). To visualize actin microfilaments, monocyte-EC co-cultures were incubated with Alexa Fluor 594-Phalloidin (BD Biosciences, USA). Coverslips were mounted onto glass slides and fluorescence images (15 per condition) were taken using a Nikon Eclipse Ti microscope fitted with a Nikon Digital Sight DS-Qi1Mc camera. ICAM-1 clustering index was determined using ImageJ by normalizing the total monocyte fluorescence (from at least 30 cells) to the background of the surrounding EC cytoplasm.

[5] = tested on: endothelial mitochondrial superoxide; assay: Endothelial mitochondrial superoxide production (MitoSOX); format: cell-based, human; conditions: free NTG 100 μM (20-fold above effective dose), L-NIO-treated ECs
Experimental: ECs were plated at sub-confluence on gelatin-coated MatTek dishes under normal culture conditions and subjected to overnight treatment with either L-NIO (3 mM)±[NTG (5, 25, or 100 μM) or NTG-NL (5, 50 or 100 μg/mL)]. To detect mitochondrial superoxide, ECs were labeled with MitoSOX™ (Life Technologies, USA), a mitochondrial superoxide-sensitive fluorescent dye that is widely used to measure mitochondrial ROS production under various conditions, including NTG treatment. ECs were labeled with MitoSOX™ Red at a final dose of 5 μM in KHB for 10 minutes at 37° C., rinsed three times with KHB to remove excess dye and placed at 37° C. in KHB for an additional 10 minutes prior to live cell imaging. Fluorescence images (six per condition) were acquired using Nikon Eclipse Ti microscope and total cell fluorescence intensity from at least 20 cells was analyzed using ImageJ software.

[6] = tested on: isolated sheep pulmonary arteries; assay: Pulmonary artery ring isometric tension: NTG-induced vasorelaxation after pretreatment
Experimental: All animal procedures were in accordance with the Animal Welfare Act, the Guiding Principles in the Care and Use of Animals approved by the Council of the American Physiological Society, the National Institutes of Health Guide for the Care and Use of Laboratory Animals, and Loma Linda University Institutional Animal Care and Use Committee (IACUC). Pregnant ewes were anesthetized with ketamine (10 mg/kg, IV) and midazolam (5 mg/kg, IV) and anesthesia maintained with inhalation of 1-3% isofluranein O2 throughout surgery as required. Ewes and Fetuses were euthanized with an overdose of Euthasol (pentobarbital sodium, 100 mg/kg) and phenytoin sodium (10 mg/kg; Virbac, Ft. Worth, Tex.).
To assess arterial vasorelaxation in response to NTG treatment, pulmonary arteries (4th-5th order) were harvested from newborn fetal sheep (gestational period between 138-141 days), dissected free of parenchyma and cut into 5 mm long rings (at least 8 per condition) in ice-cold HEPES buffer (Sigma Aldrich, USA). […] Following treatment, rings were mounted onto tungsten wires under 0.5 g of resting tension in organ baths containing KHB, gassed with 95% O2-5% CO2, and maintained at 37° C. Arterial rings were rinsed once with KHB, allowed to equilibrate for at least 30 minutes, and re-tensioned prior to addition of 125 mM KCl (Sigma Aldrich, USA) to ensure rings were still functional. Rings were rinsed three times to remove KCl, allowed to relax, and preconstricted with 10 μM Serotonin (Tocris Bioscience, USA) to achieve 100% contraction. Rings were then exposed to increasing concentrations of free NTG (1 nM to 100 μM) and subsequent recordings of concentration-response curves were acquired using a force displacement transducer (AD Instruments, New Zealand) and analyzed using Prism (Graphpad Software Inc).

[7] = in vivo; cited from earlier work

Structure (SMILES): O=[N+]([O-])OCC(CO[N+](=O)[O-])O[N+](=O)[O-] [NTG, Nitroglycerin]
- effect on U937 monocytic cell adhesion to ECs [1]: dose-dependent inhibition
- EC50 ([1]; Homo sapiens, U-937, read-out: EC50, inhibition of human monocyte adhesion to NO-deficient human microvascular ECs): 0.64 µM
- effective anti-inflammatory NTG dose ([1]; L-NIO-treated ECs, adhesion back to level of untreated ECs): 5 µM
- U937 cell-EC adhesion after 4 hr treatment ([1]; NTG 5 μM): significant inhibition of U937 cell-EC adhesion
- U937 cell-EC adhesion after 4 hr treatment ([1]; free NTG 100 μM): loses its therapeutic effect
- loss (decrease) in anti-inflammatory effect at high dose ([1]; free NTG 100 μM, L-NIO-treated ECs): ~2 fold
- anti-inflammatory effect of free NTG at the amount equivalent to NTG-NL ([1]; listed as Free NTG): does not produce a significant anti-inflammatory effect
- anti-inflammatory effect of free NTG at the amount equivalent to NTG-NL ([1]; listed as free NTG): failed to produce a significant anti-inflammatory effect
- recovery of EC-dependent (extracellular) NO production [2]: complete recovery
- recovery of intracellular NO in L-NIO-treated cells [3]: 79%
- effect on ICAM-1 clustering induced by L-NIO [4]: inhibited
- increase in mitochondrial superoxide formation [5]: 2 fold
- IC50 ([6]; Ovis aries, read-out: Mean IC50 of NTG-induced relaxation, arteries pretreated 4 h with free NTG 5 μM): 0.25 µM
- IC50 ([6]; Ovis aries, read-out: Mean IC50 of NTG-induced relaxation, arteries pretreated 4 h with free NTG 100 μM): 15 µM
- IC50 ([6]; Ovis aries, read-out: −Log IC50 of NTG-induced relaxation, arteries pretreated 4 h with free NTG 5 μM (converted), mean ± SEM): 0.251 µM
- IC50 ([6]; Ovis aries, read-out: −Log IC50 of NTG-induced relaxation, arteries pretreated 4 h with free NTG 100 μM (converted), mean ± SEM): 15.5 µM
- Maximal Relaxation (%) ([6]; arteries pretreated 4 h with free NTG 5 μM, mean ± SEM): 69 ± 4 %
- Maximal Relaxation (%) ([6]; arteries pretreated 4 h with free NTG 100 μM, mean ± SEM): 66 ± 9%
- IC50 ([6]; read-out: Mean IC50 of NTG-induced relaxation, arteries pretreated 4 h with free NTG 100 μM): 15.5 µM
- time of clearance of NTG from bloodstream [7]: 15 to 30 min
